The source of these data is US10220029B2, “Pharmaceutical composition comprising glutarimide derivatives and use thereof in the treatment of eosinophilic diseases” (OBSCHESTVO S ORGANICHENNOI OTVETSTVENNOSTIYU …, priority 2013, dated 2019).

Assay [1] has as its system model of allergic rhinitis in guinea pigs. As to the kind of experiment: Content of cell elements in the nasal lavage in the model of allergic rhinitis in guinea pigs. Type of assay: in vivo, guinea pig. As to conditions: n = 8. The procedure: (§1) The model of allergic rhinitis in guinea pigs was realized by a standard method [Vishnu N. Thakare, M. M. Osama, Suresh R. Naik. […] 2013 September; 17(1):18-25].
(§2) Guinea pigs (250-300 g) were immunized with 4-time (on days 0, 7, 14, and 21) intragastric administration of ovalbumin (100 μg/pig) and aluminium hydroxide (5 mg/pig), both of which were diluted and suspended in a physiological saline solution. […], a solution of ovalbumin (60 mg/mL) was administered intranasally to each nostril of the animals at a dose 20 μL. On day 35, the animals received subcutaneously an ovalbumin solution (200 μg/mL, 25 μL); the animal back was previously shaved in the site of administration. Swelling and redness at the injection site served as a support of sensibilisation. On day 42 of the study, an ovalbumin solution (60 mg/mL, 20 μL/nostril) was administered intranasally. A group of pseudoimmunized animals was formed to control the formation of exactly allergic inflammation: on days 0, 7, 14, and 21, the pigs received a solution of aluminium hydroxide (5 mg/pig), and on days 28 and 35, they received a physiological saline solution, and on day 42, a solution of ovalbumin (60 mg/mL, 20 μL/nostril).
(§3) The studied compounds (14 mg/kg) were administered 3 times by the intragastric route: 48, 24, and 1 hour before the last administration of ovalbumin. The reference preparation, dexamethasone, was administered one time by the intragastric route, 3 hours before the last intranasal administration of ovalbumin.
(§4) Clinical manifestations, such as the number of sneezes and nose scratchings, were registered for 2 hours after the last administration of ovalbumin. Nasal lavage was taken 24 hours after the last administration of ovalbumin, and in this lavage, the total lymphocyte count and leukocyte formula were determined. The number of guinea pigs in a group was 8.

Assay [2] has the same test system. Nature of the assay: Clinical manifestations of allergic rhinitis in guinea pigs (sneezes, nose scratchings). Type of assay: in vivo, guinea pig. As to conditions: 2 hours after last ovalbumin, n = 8. The procedure: as §1, §2, §3, §4
Assay [3] concerns model of bronchial asthma in guinea pigs. Nature of the assay: Content of cell elements in BAL in the model of bronchial asthma in guinea pigs. The format is in vivo, guinea pig. As to conditions: Table 4; 14 mg/kg, 10 times of administration; n = 9. How it is done: Bronchial asthma in guinea pigs was induced by a standard method [Ricciardolo F L, Nijkamp F, De Rose V, Folkerts G. The guinea pig as an animal model for asthma// Current Drug Targets. 2008 June; 9(6):452-65]. The animals were immunized by one parenteral administration of 0.5 mL of a solution comprising 100 μg/mL ovalbumin (Sigma) and 100 mg/mL aluminium hydroxide. Intact animals received a physiological saline solution in an amount of 0.5 mL.
On days 29, 30 and 31, hyperactivity of the respiratory airways was provoked by inhalation administration of ovalbumin in ascending concentrations of 0.1, 0.3, and 0.5 mg/mL on days 1, 2, and 3 of the provocation, respectively. The inhalation lasted 5 minutes or until asphyxia symptoms became apparent (fall to one side). On day 32, the animals received a challenging dose of ovalbumin (1 mg/mL) for 5 minutes, while assessing a bronchospastic reaction.
The studied compounds were administered to the animals once daily every day for 6 or 10 days; the administration was terminated two days before the administration of the challenging dose of antigen.
The bronchoalveolar lavage (BAL) and cardiac cavity blood were derived from the animals 24 hours after administration of the challenging dose. The BAL was collected under anesthesia by lavaging the lungs with 5 mL of a physiological saline solution heated to 37° C. through the trachea, using a syringe dosing device.
The absolute number of cell elements in 1 μL of the lavage (cytosis) was counted in the bronchoalveolar lavage, using the Goryaev camera. Then, the BAL was centrifuged at 200 g for 10 minutes. The residue was used to prepare swabs that were fixed in methanol and stained according to Romanovsky-Giemsa to count endopulmonary cytogram.
The study comprised 3 experiments, wherein the first one was directed to the evaluation of the effect of claimed compounds 1-6 on the cell composition of the BAL, the second and the third experiments were aimed at evaluating the effect of compounds 1 and 2 on the cell composition of the BAL, the cell composition of the blood, and on the bronchospasm severity.

Assay [4] has as its system model of sephadex-induced eosinophilic lung inflammation in rats. Nature of the assay: Content of cell elements in BAL in the model of sephadex-induced eosinophilic lung inflammation in rats. Type of assay: in vivo, male Wistar rats. As to conditions: Table 9, four times, BAL 48 hours after sephadex, n = 7. The procedure:
The model of sephadex-induced eosinophilic lung inflammation in rats was realized by a standard method [Evaldsson C, Rydén I, Uppugunduri S. Isomaltitol exacerbates neutrophilia but reduces eosinophilia: new insights into the sephadex model of lung inflammation//Int Arch Allergy Immunol. 2011; 154(4):286-94]. Sephadex G-200 (Pharmacia, Sweden) was administered one time by inhalation to male Wistar rats at a dose of 5 mg/kg. The studied compounds were administered to the animals by the intragastric route four times: 24 hours and 1 hour before and 24 hours and 45 hours after administration of sephadex. The reference preparation, budesonide, was administered according to the same scheme, by inhalation at a dose of 0.5 mg/kg. Bronchoalveolar lavage was taken 48 hours after the inhalation of sephadex, and the total lymphocyte count and leukocyte formula in the lavage were determined. The number of rats in a group was 7 to 10.

For assay [5], the system named is model of atopic dermatitis in mice. As to the kind of experiment: Response index in DNCB-induced atopic (allopathic) dermatitis in mice. Type of assay: in vivo, male Balb/c mice. As to conditions: 10 mg/kg intragastric once daily on days 8-17 (reference preparation); n = 12. The procedure:
The model of allopathic dermatitis was realized by a standard method [Mechanism of dinitrochlorobenzene-induced dermatitis in mice: role of specific antibodies in pathogenesis//PLoS One. 2009; 4(11)].
On days 0 and 12 of the study, 100 μL of a 2% solution of 1-chloro-2,4-dinitrobenzene (DNCB, Sigma-Aldrich, US) in 95% ethanol was applied to shaved sites in the backs of male Balb/c mice. On day 17 of the study, to the right “studied” ear of the animals, 20 μL of the alcohol solution of 2% DNCB was applied two times with a one-hour interval. The studied compound and the reference preparation, dexamethasone, were administered by the intragastric route once daily on days 8-17 of the study.
On day 18 of the study, the animals were euthanized in a CO2 camera. The weights of the “studied” and “control” ears were measured. A response index (RI) expressed in percentage of a difference in the weights of the “studied” and “control” ears was calculated.

The subject of assay [6] is model of leukotriene-induced eosinophilic lung inflammation in guinea pigs. As to the kind of experiment: Content of cell elements in BAL in the model of leukotriene-induced eosinophilic lung inflammation in guinea pigs. Type of assay: in vivo, guinea pig. As to conditions: 0.8 mg/kg intragastric, one time one hour before LTD4 (reference preparation); BAL 48 hours after LTD4; n = 8. The source says: The model of leukotriene-induced eosinophilic lung inflammation in guinea pigs was realized by a standard method [Underwood DC1, Osborn R R, Newsholme S J, Torphy T J, Hay D W. Persistent airway eosinophilia after leukotriene (LT) D4 administration in the guinea pig: modulation by the LTD4 receptor antagonist, pranlukast, or an interleukin-5 monoclonal antibody// Am J Respir Crit Care Med. 1996 October; 154(4 Pt 1):850-7]. A solution of leukotriene D4 (LTD4, Cayman Chemical, USA) at a concentration of […] (a flow rate of 250 mL/hr) was inhaled to male guinea pigs (250-300 g) under conditions of a double-chamber plethysmograph (Emka Technologies, France) for one minute. The studied compound was administered to the animals by the intragastric route four times: 24 hours and 1 hour before and 24 hours and 45 hours after the inhalation of LTD4. The reference preparation, montelukast (0.8 mg/kg), was administered one time by the intragastric route one hour before the inhalation of LTD4. Bronchoalveolar lavage was taken 48 hours after the inhalation of LTD4, and the total lymphocyte count and leukocyte formula were determined in the lavage. The number of guinea pigs in a group was 8.

Setting [7] is: 14 mg/kg intragastric, 3 times, nasal lavage 24 hours after last ovalbumin.
[8] abbreviates: 5 mg/kg intragastric, one time 3 hours before last ovalbumin (reference preparation).
[9] abbreviates: 5 mg/kg intragastric, one time (reference preparation).

SMILES strings stand for the structures. Marks after values point to notes of the source that are not given here.

On to `Cn1cnc(CCN2C(=O)CCCC2=O)c1` [Compound 5], for which, in assay [1] (setting [7]), the “Eosinophils, content of cell elements in 1 μL of nasal lavage” value is 575 ± 143& in 1 μL of nasal lavage; the “Leukocytes, content of cell elements in 1 μL of nasal lavage” value is recorded as 1071 ± 233& in 1 μL of nasal lavage; the “Lymphocytes, content of cell elements in 1 μL of nasal lavage” value is on record as 9 ± 7 in 1 μL of nasal lavage; the “Macrophages, content of cell elements in 1 μL of nasal lavage” value is given as 198 ± 54 in 1 μL of nasal lavage. For the same compound, the “Neutrophils, content of cell elements in 1 μL of nasal lavage” value in assay [1] (setting [7]) is reported as 344 ± 50& in 1 μL of nasal lavage. Also, in assay [2] (14 mg/kg intragastric, 3 times), the “Number of nose scratchings/2 hours” value is reported as 19.1 ± 4.9 & and the “Number of sneezes/2 hours” value is given as 7.1 ± 1.3 &. In assay [3], the “Eosinophils in BAL” value was 1.61 ± 0.86*& 10^9/L, the “Lymphocytes in BAL” value is reported as 1.35 ± 0.34* 10^9/L, the “Monocytes in BAL” value was 0.84 ± 0.23* 10^9/L and the “Neutrophils in BAL” value is recorded as 1.05 ± 0.33 10^9/L. Further, in assay [4] (1.8 mg/kg intragastric), the “Eosinophils, content of cell elements in 1 μL of BAL” value (“Eosinophils, content … of BAL” for short) was 147 ± 44& in 1 μL of BAL; the “Leukocytes, content of cell elements in 1 μL of BAL” value (“Leukocytes, content … of BAL” below) is 2064 ± 257& in 1 μL of BAL; the “Lymphocytes, content of cell elements in 1 μL of BAL” value (from here on “Lymphocytes, content … of BAL”) is on record as 66 ± 26 in 1 μL of BAL; the “Macrophages, content of cell elements in 1 μL of BAL” value (“Macrophages, content … of BAL” below) was 1576 ± 93& in 1 μL of BAL. For the same compound, the “Neutrophils, content of cell elements in 1 μL of BAL” value (shortened to “Neutrophils, content … of BAL”) in assay [4] (1.8 mg/kg intragastric) is given as 385 ± 57 in 1 μL of BAL. For the same compound, in assay [4] (18 mg/kg intragastric), the “Eosinophils, content … of BAL” value is listed as 34 ± 15& in 1 μL of BAL; the “Leukocytes, content … of BAL” value is given as 2189 ± 222& in 1 μL of BAL; the “Lymphocytes, content … of BAL” value is 121 ± 48 in 1 μL of BAL; the “Macrophages, content … of BAL” value is given as 1331 ± 66 & in 1 μL of BAL. Moreover, the “Neutrophils, content … of BAL” value in assay [4] (18 mg/kg intragastric) is listed as 605 ± 124 in 1 μL of BAL.
`C[C@@H]1C[C@H]2[C@@H]3CCC4=CC(=O)C=C[C@]4(C)[C@@]3(F)[C@@H](O)C[C@]2(C)[C@@]1(O)C(=O)CO` [Dexamethasone, dexamethasone, reference compound]: in assay [1] (setting [8]), the “Eosinophils, content of cell elements in 1 μL of nasal lavage” value was 365 ± 90& in 1 μL of nasal lavage; the “Leukocytes, content of cell elements in 1 μL of nasal lavage” value was 1186 ± 142& in 1 μL of nasal lavage; the “Lymphocytes, content of cell elements in 1 μL of nasal lavage” value was 5 ± 3 in 1 μL of nasal lavage; the “Macrophages, content of cell elements in 1 μL of nasal lavage” value was 296 ± 71 in 1 μL of nasal lavage. Further, the “Neutrophils, content of cell elements in 1 μL of nasal lavage” value in assay [1] (setting [8]) was 328 ± 47& in 1 μL of nasal lavage. In assay [2] (setting [9]), the “Number of nose scratchings/2 hours” value was 16.7 ± 1.8*& and the “Number of sneezes/2 hours” value is given as 7.9 ± 0.8 &. Further, the “Response index (%)” value in assay [5] was 65.6 ± 8*& %.
For the compound `CC(C)(O)c1ccccc1CC[C@@H](SCC1(CC(=O)O)CC1)c1cccc(/C=C/c2ccc3ccc(Cl)cc3n2)c1` [Montelukast, montelukast, reference compound], in assay [6], the “Eosinophils, content … of BAL” value is 618 ± 116*& in 1 μL of BAL; the “Leukocytes, content … of BAL” value is recorded as 24065 ± 415*& in 1 μL of BAL; the “Lymphocytes, content … of BAL” value is recorded as 96 ± 39 in 1 μL of BAL; the “Macrophages, content … of BAL” value was 1519 ± 263 in 1 μL of BAL. For the same compound, the “Neutrophils, content … of BAL” value in assay [6] is given as 173 ± 41 in 1 μL of BAL.
